Measured values taken from patent US20250288587A1, “Methods of Treating Fibrosis” (Athira Pharma, Inc., priority 2022, published 2025).
Where a SMILES comes first, the peptide text is derived from it. [ ]: non-standard residue; d: D form. The star is where a group is joined. Hexanoyl = CCCCCC(=O)*; Ahx = NCCCCCC(=O)O

Columns and labels:
MRC-5 cells = test: TGFβ-stimulated αSMA expression in MRC-5 cells (HTRF); format: cell-based; design: key to Significant reduction in αSMA via HTRF compared to TGFβ alone: NS = no statistically significant change in aSMA expression; + = p < 0.05; ++ = p < 0.01; +++ = p < 0.005; ++++ = p < 0.001; conditions: for Significant reduction in αSMA via HTRF compared to TGFβ alone: TGFβ 1 ng/ml, 48 h
Method: In this study, pulmonary-derived immortalized fibroblasts, MRC-5 cells, were cultured as a model of the early transition to fibrosis, and αSMA expression was measured using an immunodetection system driven by homogenous time-resolved fluorescence (HTRF) technology. This detection system produces a fluorescent signal in the presence of αSMA in cell lysates. Cells were grown to confluence in 96-well culture plates in complete media, and then transitioned to serum-free media for 2 hours. Next TGFβ (final 1 ng/ml in serum-free media) was added to the cells to stimulate the fibrotic transition. After 2 hours, media containing either HGF or HGF combined with one of the compounds was added to the cells. After incubation for 48 hours, cells were lysed and processed for αSMA HTRF to detect the levels of αSMA expression and compared to TGFβ-stimulated cultures. Statistical analysis consisted of 1-way ANOVA with a Dunnett's multiple comparison's post-test.

[1] = tested on: THP-1-differentiated macrophages; test: Pro-inflammatory cytokine expression in LPS-challenged THP-1-differentiated macrophages; format: cell-based, human; design: key to IL-6, significant reduction in culture supernatant vs LPS treatment / TNF-α, significant reduction in culture supernatant vs LPS treatment / IL-1β, significant reduction in culture supernatant vs LPS treatment: “NS” indicates a non-significant reduction in the indicated cytokine; “+” indicates a p value <0.05 in Tukey post test; “++” indicates a p value <0.01 in Tukey post test; conditions: for IL-1β, significant reduction in culture supernatant vs LPS treatment / IL-6, significant reduction in culture supernatant vs LPS treatment / TNF-α, significant reduction in culture supernatant vs LPS treatment: 20 min pre-treatment, 24 hrs LPS
Method: Differentiation with PMA causes THP-1 monocyte cells to acquire functional and morphological resemblance to macrophages. LPS interacts with THP-1 differentiated macrophage through the toll-like receptor 4, triggering the inflammatory response and stimulating pro-inflammatory cytokine release and eventually leading to cellular death. Compounds were tested to determine their anti-inflammatory effects on LPS-challenged macrophage cultures. THP-1-differentiated macrophages were treated with test compounds for 20 minutes, followed by 24 hrs of LPS challenge. Culture supernatants were then collected to analyzed for the presence of pro-inflammatory cytokines: […], interleukin 6 (IL-6) and tumor necrosis factor α (TNF-α).
Cytokine quantification in cell culture supernatants was accomplished by HTRF kits to assess levels of IL-1β (Human IL-1β kit, #62HIL1BPEG, Cisbio) and IL-6 (Human IL-6 kit, 62HIL06PET, Cisbio), and by ELISA to determine the levels of TNF-α (Human TNF-α ELISA kit, KHC3011, ThermoFisher).
Data analysis was performed via 1-way ANOVA with Tukey post-test compared to LPS treatment cultures using Prism statistical software (GraphPad). Tabular data indicates significance of reduction in culture supernatants for the indicated analyte at the indicated doses.

[2] = tested on: pulmonary LPS-stimulated rats; test: Cytokine expression in BALF supernatant (multiplex immunoassay), LPS-induced acute pulmonary inflammation; format: in vivo; conditions: 3 mg/kg IP 1 h before LPS
[3] = tested on: pulmonary LPS-stimulated rats; test: Immune cell infiltration in BALF, LPS-induced acute pulmonary inflammation; format: in vivo; conditions: 3 mg/kg IP 1 h before LPS; BALF 4 h post LPS
[4] = tested on: C57BL/6 mice, bleomycin-induced pulmonary fibrosis; test: Bleomycin-induced pulmonary fibrosis in mice; format: in vivo; design: key to Collagen, improvement in BLM-induced alterations versus disease control / Alpha-Smooth Muscle Actin, improvement in BLM-induced alterations versus disease control / Body Weight, improvement in BLM-induced alterations versus disease control / Right Lung Weight, improvement in BLM-induced alterations versus disease control / Hydroxyproline, improvement in BLM-induced alterations versus disease control: + = >5-25% improvement vs disease control; ++ = >26-50% improvement vs disease control; +++ = >51-100% improvement v disease control; NS means not significant
Method: Lung fibrosis in C57BL/6 mice is induced by a single […] injection of the chemotherapy drug bleomycin. Mice are treated with vehicle or test compound. At termination (study day 28), one lung is weighed, with increased weight indicating more advanced fibrosis. Lung tissue is also homogenized for hydroxyproline, collagen, and TGF-β quantification. Lung tissue is also formalin-fixed and further processed for H&E, collagen morphometry, Ashcroft's score, and both α-SMA and TUNEL expression analyses. Plasma is analyzed by multiplex bead array for MMP-2, MMP-9, IL-1β, IL-6, IL-12, and TNF-α expression.
The experimental design described in Example B1 with the following changes was used to assess the ability of Compound 1a to reduce pulmonary fibrosis. Briefly, Male C57BL/6 mice (Envigo) […] were used. The mice were 3.5-4 months old and ˜24-30 g by weight. On day −1 animals were randomized based on body weight and the animals were assigned with a permanent number by ear notching. Cages were identified by cage cards indicating the study code, group number, sex, dose, cage number, number of animals and animal number details.
On day 0, all animals (except the sham control animals) were administered bleomycin (0.03 U in 50 μl normal saline) intratracheally (i.t.) under Ketamine+Xylazine anesthesia. The sham control animals were dosed with 50 μl of normal saline intratracheally. Pirfenidone was used as a positive control; this compound is known to downregulate growth factors and procollagens to reduce fibrosis and is an approved drug for the treatment of idiopathic pulmonary fibrosis.
Vehicle, pirfenidone and test Compound 1a dosing was initiated from day 3 to day 21 as described in the following Table 2. On day 21 whole blood was collected 1-hour post-dose into EDTA and then processed to plasma. Right lungs were then collected, weighed, snap frozen and later homogenized for biochemical analysis. Hydroxyproline, collagen and TGF-Beta levels were measured in the right lung homogenates.

[5] = tested on: BALB/c mice, CCl4 mouse model of liver fibrosis; test: CCl4-induced liver fibrosis, plasma AST; format: in vivo
Method: Liver fibrosis in BALB/c mice was induced by biweekly intraperitoneal injections of carbon tetrachloride (CCl4) from study day 0 to 43. Mice were treated with vehicle, Compound 1a, or positive control, SB535334, beginning at study day 21. At termination (study day 43), plasma was tested for liver function via levels of aspartate aminotransferase (AST).
AST can be used as a marker of liver damage, because increased levels are released in the blood stream in chronic liver disease.

[6] = dose 100 mg/kg PO twice daily, right lung homogenate, day 21

CCCCCC(=O)N[C@@H](Cc1ccc(O)cc1)C(=O)N[C@H](C(=O)NCCCCCC(N)=O)[C@@H](C)CC [Compound A19-AM, Dihexa] (Hexanoyl-Tyr-Ile-[Ahx]-NH2)
αSMA expression (MRC-5 cells; 1 uM, combined with 0.01 ng/ml HGF): significantly reduced αSMA
Significant reduction in αSMA via HTRF compared to TGFβ alone (MRC-5 cells; test compound 1 nM, HGF 0.01 ng/ml): NS
Significant reduction in αSMA via HTRF compared to TGFβ alone (MRC-5 cells; test compound 1 μM, HGF 0.01 ng/ml): ++++ (++++ = p < 0.001)
IL-1β, significant reduction in culture supernatant vs LPS treatment ([1]; 0.1 nM): NS
IL-6, significant reduction in culture supernatant vs LPS treatment ([1]; 0.1 nM): NS
TNF-α, significant reduction in culture supernatant vs LPS treatment ([1]; 0.1 nM): NS
IL-1β, significant reduction in culture supernatant vs LPS treatment ([1]; 10 nM): ++ (“++” indicates a p value <0.01 in Tukey post test)
IL-6, significant reduction in culture supernatant vs LPS treatment ([1]; 10 nM): + (“+” indicates a p value <0.05 in Tukey post test)
TNF-α, significant reduction in culture supernatant vs LPS treatment ([1]; 10 nM): + (“+” indicates a p value <0.05 in Tukey post test)
IL-1β, significant reduction in culture supernatant vs LPS treatment ([1]; 1000 nM): + (“+” indicates a p value <0.05 in Tukey post test)
IL-6, significant reduction in culture supernatant vs LPS treatment ([1]; 1000 nM): ++ (“++” indicates a p value <0.01 in Tukey post test)
TNF-α, significant reduction in culture supernatant vs LPS treatment ([1]; 1000 nM): + (“+” indicates a p value <0.05 in Tukey post test)
expression of IL-1β and TNF-α ([1]; at at least one tested dose): significantly reduced
expression of IL-6 ([1]; at at least one tested dose): significantly reduced

C[C@@H]1C[C@H]2[C@@H]3CCC4=CC(=O)C=C[C@]4(C)[C@@]3(F)[C@@H](O)C[C@]2(C)[C@@]1(O)C(=O)CO [Dex, Dexamethasone, reference compound]
CCL2, significant change in cytokine expression in BALF supernatant [2]: + (+ = Significant change in cytokine quantification, p < 0.05 by Student's T-test)
CCL3, significant change in cytokine expression in BALF supernatant [2]: + (+ = Significant change in cytokine quantification, p < 0.05 by Student's T-test)
CCL5, significant change in cytokine expression in BALF supernatant [2]: + (+ = Significant change in cytokine quantification, p < 0.05 by Student's T-test)
CCL11, significant change in cytokine expression in BALF supernatant [2]: + (+ = Significant change in cytokine quantification, p < 0.05 by Student's T-test)
CX3CL1, significant change in cytokine expression in BALF supernatant [2]: + (+ = Significant change in cytokine quantification, p < 0.05 by Student's T-test)
CXCL1, significant change in cytokine expression in BALF supernatant [2]: + (+ = Significant change in cytokine quantification, p < 0.05 by Student's T-test)
CXCL5, significant change in cytokine expression in BALF supernatant [2]: + (+ = Significant change in cytokine quantification, p < 0.05 by Student's T-test)
CXCL10, significant change in cytokine expression in BALF supernatant [2]: + (+ = Significant change in cytokine quantification, p < 0.05 by Student's T-test)
EGF, significant change in cytokine expression in BALF supernatant [2]: + (+ = Significant change in cytokine quantification, p < 0.05 by Student's T-test)
IFN-γ, significant change in cytokine expression in BALF supernatant [2]: + (+ = Significant change in cytokine quantification, p < 0.05 by Student's T-test)
IL-1α, significant change in cytokine expression in BALF supernatant [2]: + (+ = Significant change in cytokine quantification, p < 0.05 by Student's T-test)
IL-1β, significant change in cytokine expression in BALF supernatant [2]: + (+ = Significant change in cytokine quantification, p < 0.05 by Student's T-test)
IL-5, significant change in cytokine expression in BALF supernatant [2]: + (+ = Significant change in cytokine quantification, p < 0.05 by Student's T-test)
IL-6, significant change in cytokine expression in BALF supernatant [2]: + (+ = Significant change in cytokine quantification, p < 0.05 by Student's T-test)
IL-10, significant change in cytokine expression in BALF supernatant [2]: + (+ = Significant change in cytokine quantification, p < 0.05 by Student's T-test)
IL-12p70, significant change in cytokine expression in BALF supernatant [2]: + (+ = Significant change in cytokine quantification, p < 0.05 by Student's T-test)
IL-13, significant change in cytokine expression in BALF supernatant [2]: + (+ = Significant change in cytokine quantification, p < 0.05 by Student's T-test)
IL-17A, significant change in cytokine expression in BALF supernatant [2]: + (+ = Significant change in cytokine quantification, p < 0.05 by Student's T-test)
TNF-α, significant change in cytokine expression in BALF supernatant [2]: + (+ = Significant change in cytokine quantification, p < 0.05 by Student's T-test)
Neutrophils in BALF, reduction in cell count vs disease control [3]: +++ (+++ = >75% reduction in cell count vs disease control)
Total Leukocytes in BALF, reduction in cell count vs disease control [3]: +++ (+++ = >75% reduction in cell count vs disease control)

Cc1ccc(=O)n(-c2ccccc2)c1 [Pirfenidone, reference compound]
bleomycin-induced increases in TGF-β in right lung homogenates ([4]; all doses, day 21): significantly protected against bleomycin-induced increases in TGF-β
protection against bleomycin-induced body weight loss ([4]; all treatment groups, over the study period): did not protect against body weight loss
Body Weight, improvement in BLM-induced alterations versus disease control ([4]; dose 100 mg/kg PO twice daily, days 3-21): NS
Right Lung Weight, improvement in BLM-induced alterations versus disease control ([4]; dose 100 mg/kg PO twice daily, days 3-21, day 21): + (+ = >5-25% improvement vs disease control)
Alpha-Smooth Muscle Actin, improvement in BLM-induced alterations versus disease control ([4]; dose 100 mg/kg PO twice daily, day 21): + (+ = >5-25% improvement vs disease control)
Collagen, improvement in BLM-induced alterations versus disease control [4, 6]: ++ (++ = >26-50% improvement vs disease control)
Hydroxyproline, improvement in BLM-induced alterations versus disease control [4, 6]: NS
TGF-Beta, improvement in BLM-induced alterations versus disease control [4, 6]: +++ (+++ = >51-100% improvement v disease control)
alpha-smooth muscle actin morphometory ([4]; other doses of Compound 1a, pirfenidone doses, day 21): insignificant decreases

Cc1cccc(-c2[nH]c(C(C)(C)C)nc2-c2ccc3nccnc3c2)n1 [SB525334, reference compound]
AST in plasma, improvement compared to disease control ([5]; Dose 30, from study day 21, termination day 43): − (− = change of <5% compared to disease control)
AST levels in plasma compared to CCl4-treated mice receiving vehicle ([5]; positive control): significant increases

HGF: Hepatocyte growth factor protein, added alone or with test compounds
Significant reduction in αSMA via HTRF compared to TGFβ alone (MRC-5 cells; HGF 0.01 ng/ml alone): NS
Significant reduction in αSMA via HTRF compared to TGFβ alone (MRC-5 cells; HGF 1 ng/ml alone): NS
Significant reduction in αSMA via HTRF compared to TGFβ alone (MRC-5 cells; HGF 10 ng/ml alone): +++ (+++ = p < 0.005)
αSMA expression, HGF alone (MRC-5 cells; TGFβ-stimulated MRC-5 cells): significantly reduce αSMA expression at high (10 ng/ml) but not low (0.01 or 1 ng/ml) concentrations
